In data set [1] the test system is Staphylococcus aureus,strain 209 P- ATCC 6538 P. The data set is described as follows: Bacteriostatic activity in vitro (dilution method). Format: cell-based. To be noted: nutrient broth.
Data set [2] has as its system Staphylococcus aureus,Smith strain. The data set is described as follows: Bacteriostatic activity in vitro (dilution method). It counts as cell-based. To be noted: nutrient broth.
Data set [3] relates to Sarcina lutea - ATCC 9341. The data set is described as follows: Bacteriostatic activity in vitro (dilution method). It counts as cell-based. The following applies: nutrient broth.
Data set [4] deals with Streptococcus faecalis - ATCC 8043. The experiment in a line: Bacteriostatic activity in vitro (dilution method). Format: cell-based. The following applies: nutrient broth.
For data set [5], the system named is Streptococcus pyogenes haemolyticus, Dig 7 strain (Institut Pasteur). The data set is described as follows: Bacteriostatic activity in vitro (dilution method). Format: cell-based. The following applies: nutrient broth.
The subject of data set [6] is Diplococcus pneumoniae, Til strain (Institut Pasteur). The data set is described as follows: Bacteriostatic activity in vitro (dilution method). It counts as cell-based. The following applies: nutrient broth.
Data set [7] relates to Neisseria catarrhalis (A 152, Institut Pasteur). The experiment in a line: Bacteriostatic activity in vitro (dilution method). Format: cell-based. To be noted: nutrient broth.
The test system of data set [8] is Bacillus subtilis - ATCC 6633. The data set is described as follows: Bacteriostatic activity in vitro (dilution method). It counts as cell-based. To be noted: nutrient broth.
Data set [9] relates to Bacillus cereus - ATCC 6630. The experiment in a line: Bacteriostatic activity in vitro (dilution method). The following applies: nutrient broth. Format: cell-based.
Data set [10] relates to Mycobacterium species - ATCC 607. The data set is described as follows: Bacteriostatic activity in vitro (dilution method). Format: cell-based. To be noted: nutrient broth.
Data set [11] concerns Shigella dysenteriae, Shiga L (Institut Pasteur). Format: cell-based. The following applies: nutrient broth.
Data set [12] deals with Salmonella schottmuelleri (paratyphi B), Fougenc strain (Institut Pasteur). The data set is described as follows: Bacteriostatic activity in vitro (dilution method). It counts as cell-based. To be noted: nutrient broth.
The subject of the next data set is Proteus vulgaris. The data set is described as follows: Bacteriostatic activity in vitro (dilution method). It counts as cell-based. To be noted: nutrient broth.
For the next data set, the system named is Pseudomonas aeruginosa. The data set is described as follows: Bacteriostatic activity in vitro (dilution method). The following applies: nutrient broth. It counts as cell-based.
Another data set has as its system mice. The experiment in a line: Acute toxicity in mice. It counts as in vivo. To be noted: orally, single dose. The method, then:
Acute toxicity: in mice, the 50% lethal dose (LD50) is 90 mg/kg given orally in a single dose.

Another data set has as its system chickens. The data set is described as follows: Toxicity of medicated feed in chickens (non-toxic concentrations). It counts as in vivo. The following applies: between 0.005% and 0.04% by weight in feed. The method, then: Anti-coccidial activity: the anti-coccidial activity was determined in chickens infested in particular with Eimeria tenella and Eimeria acervulina.
The anti-coccidial activity of 37,454 RP (sodium salt), incorporated into chicken feed, manifests itself at non-toxic concentrations of between 0.005% and 0.04% by weight of the sodium salt in the feed.

Turning to `CO[C@H]1CC[C@H](O[C@H]2[C@H](C)[C@@H]([C@H]3CC[C@H]([C@@H]4CC[C@H]([C@@]5(C)OC6(O[C@H](C[C@@H]7O[C@](O)([C@@H](O)C(=O)[O-])[C@@H](C)[C@H](OC)[C@@]7(C)OC)C[C@@H](OC)[C@H]6C)[C@H](C)[C@H]5OC)O4)O3)O[C@](C)(O)[C@@H]2C)O[C@@H]1C.[Na+]` (stereo partly shown) [37,454 RP (sodium salt)], the Minimum bacteriostatic concentration was determined as 0.6 μg/cc in data set [1]; 0.8 μg/cc in data set [2]; 0.9 μg/cc in data set [3]; 0.3 μg/cc in [4]; 0.6 μg/cc in [5]; 0.1 μg/cc in data set [6]. Further, the Minimum bacteriostatic concentration in data set [7] was more than 20 μg/cc; in data set [8] it was 0.8 μg/cc; in data set [9], 0.3 μg/cc; in data set [10], 10 μg/cc; in data set [11] it was more than 50 μg/cc; in data set [12], more than 50 μg/cc. Moreover, the Minimum bacteriostatic concentration in the data set with Proteus vulgaris is reported as more than 50 μg/cc; in the data set with Pseudomonas aeruginosa, more than 15 μg/cc. Moreover, the “50% lethal dose (LD50)” value in the data set with mice was 90 mg/kg. Also, in the data set on chickens, the “Toxicity at active feed concentrations” value is on record as “non-toxic”.

Values taken from US4293650A, “Anti-coccidial substance and its preparation” (Rhone-Poulenc Industries, priority 1977, dated 1981).
